The text below walks through data of patent publication US12018023B2 (NERVIANO MEDICAL SCIENCES S.R.L., priority 2018, dated 2024).

For assay [1], the target named is T1, IDH1^R132H homodimer enzyme (Homo sapiens, UniProt O75874, R132H).
T1 construct: purchased not specified
Nature of the assay: NADPH depletion assay, IDH1 R132H. Type of assay: biochemical. In short, it runs like this:
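IDH1 R132H enzyme (8 nM as diluted) in Tris-HCl pH 7.6 with 10 mM MgCl2, 0.001% Triton X-100 and 4 mM β-mercaptoethanol is preincubated 15 min at RT with compound. Substrate mix (12 uM NADPH, 3.4 mM α-ketoglutarate) is added for 60 min; remaining NAD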

The target in a further assay is T2, IDH1^R132C (Homo sapiens, UniProt O75874, R132C).
T2 construct: purchased not specified
T2 sequence (O75874 whole entry R132C): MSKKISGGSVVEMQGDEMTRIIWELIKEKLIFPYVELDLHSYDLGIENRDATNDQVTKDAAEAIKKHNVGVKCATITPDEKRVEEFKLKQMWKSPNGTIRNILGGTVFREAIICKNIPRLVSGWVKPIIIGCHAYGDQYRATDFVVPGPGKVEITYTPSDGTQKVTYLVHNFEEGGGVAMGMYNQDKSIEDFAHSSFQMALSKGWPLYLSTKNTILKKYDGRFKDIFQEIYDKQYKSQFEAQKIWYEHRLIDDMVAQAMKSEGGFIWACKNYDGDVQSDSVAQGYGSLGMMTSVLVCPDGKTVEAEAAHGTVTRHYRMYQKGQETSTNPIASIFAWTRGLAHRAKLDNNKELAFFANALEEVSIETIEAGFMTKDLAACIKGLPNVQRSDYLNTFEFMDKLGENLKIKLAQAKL
The experiment in a line: NADPH depletion assay, IDH1 R132C. The format is biochemical. In short, it runs like this: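 Fluorescence readout (Ex544/Em590) of NADPH left after diaphorase/resazurin addition. Alpha-ketoglutarate 0.14 mM final, enzyme 2 nM final; compound preincubation 15 min, then 60 min reaction, both at room temperature, pH 7.6 Tris buffer.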

The next assay has as its target T3, IDH2^R172K (Homo sapiens, UniProt P48735, R172K).
T3 construct: purchased not specified
T3 sequence (P48735 40-452 R172K): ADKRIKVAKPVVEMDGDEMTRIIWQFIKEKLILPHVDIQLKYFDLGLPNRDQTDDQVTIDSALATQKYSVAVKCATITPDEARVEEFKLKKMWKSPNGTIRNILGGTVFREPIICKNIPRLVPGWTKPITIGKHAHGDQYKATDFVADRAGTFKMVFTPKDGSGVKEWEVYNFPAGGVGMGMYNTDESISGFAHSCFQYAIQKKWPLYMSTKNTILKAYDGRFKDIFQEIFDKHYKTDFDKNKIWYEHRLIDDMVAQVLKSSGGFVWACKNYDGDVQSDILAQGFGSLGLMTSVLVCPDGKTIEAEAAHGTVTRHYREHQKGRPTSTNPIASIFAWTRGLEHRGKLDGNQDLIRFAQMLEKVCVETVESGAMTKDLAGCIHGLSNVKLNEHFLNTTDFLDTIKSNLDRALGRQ
The experiment in a line: NADPH depletion assay, IDH2 R172K. The format is biochemical. In short, it runs like this:
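This NADPH depletion assay measures NADPH left after conversion of alpha-ketoglutarate (0.55 mM final) by 16 nM IDH2 R172K over 60 min at room temperature, after a 15 min compound preincubation in pH 7.6 Tris buffer. Substrate mix held 12 μM NADPH. Diaphorase/resazurin gave the fluorescence read-out at 544/590 nm.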

For another assay, the target named is T4, IDH1WT enzyme (Homo sapiens, UniProt O75874).
T4 construct: purchased not specified
T4 sequence (O75874 whole entry): as the sequence (O75874 whole entry R132C) above, with C132R counted along it
The experiment in a line: Enzymatic assay for IDH1 wild-type (NADPH forming assay). The format is biochemical. How it is done:
IDH1WT enzymatic activity converting isocitric acid to alpha-ketoglutarate is measured using a NADPH forming assay. In the assay the forming cofactor is measured in continuous with the addition of a catalytic excess of diaphorase and resazurin, to generate a fluorescent signal in proportion to the amount of NADPH forming.
Compounds were preincubated with the enzyme, then the reaction was started by the addition of NADP^+, isocitrate, diaphorase and a corresponding substrate, resazurin. Diaphorase reduces resazurin to the highly fluorescent resorufin with the concomitant oxidation of NADPH to NADP. Specifically, 0.2 uL of test compound, previously serially diluted 1 to 3, 10 experimental points from 1 mM in DMSO, was added to 0.016 nM IDH1WT enzyme in 10 μL of Assay Buffer (150 mM NaCl, 50 mM Tris-HCl pH 7.6, 10 mM MgCl2, 0.001% Triton X-100, 4 mM β-mercaptoethanol); the mixture is incubated for 15 minutes at room temperature. The reaction is started with the addition of 10 μL of Substrate Mix (400 μM NADP^+, 40 μM iso-citrate, 5 ugr/mL Diaphorase and 7 μM resazurin in Assay Buffer), the mixture is incubated at room temperature and the reaction is reading on a ViewLux as platereader at Ex544/Em590 in continuous.

Another assay concerns U87MG_IDH1R132H. The experiment in a line: Cellular 2-HG production assay, U87-MG-IDH1 R132H. The format is cell-based. As to conditions: inhibition of 2HG production, 72 hr incubation, LC-MS/MS. In short, it runs like this:
(§1)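 Cells in E-MEM/10% FCS (G418 500 μg/mL for the transfected U87-MG line) at 500 per well got compound 24 h after seeding and were incubated 72 h at 37 °C. Medium 2-HG was measured by LC-MS/MS with 2-HG-d3 internal standard; IC50 came from sigmoidal fitting versus controls.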

In another assay the test system is HT-1080 (IDH1^R132C). The experiment in a line: Cellular 2-HG production assay, HT-1080. Type of assay: cell-based. As to conditions: Homo sapiens, HT-1080, 72 h, inhibition of 2HG production, 72 hr incubation, LC-MS/MS; read-out: HT1080 2-HG IC50. In short, it runs like this: as §1

T1 sequence (O75874 whole entry R132H): as the sequence (O75874 whole entry R132C) above, with C132H counted along it

In general, IC50 refers to the concentration at which inhibition is half-maximal. Regarding `C=CC(=O)N1CCN(C(CC2CC2)c2ccc([C@H](C)Nc3ncc4ccc(=O)n(CC)c4n3)cc2)CC1` (stereo partly drawn) [cpd 219, 2-{[(1S)-1-{4-[1-(4-acryloylpiperazin-1-yl)-2-cyclopropylethyl]phenyl}ethyl]amino}-8-ethylpyrido[2,3-d]pyrimidin-7(8H)-one], the half-inhibitory concentration (IC50) in assay [1] stood at 1 nM; against IDH1^R132C it was 1 nM; at IDH2^R172K, 6 nM; on IDH1WT enzyme, 52 nM; in the assay with U87MG_IDH1R132H, 0.4 nM; with HT-1080 (IDH1^R132C) it was 0.4 nM.

With `C=CC(=O)N1CCN(Cc2ccc([C@H](C)Nc3ncc4ccc(=O)n(CC(C)(C)C)c4n3)cc2)CC1` [cpd 139, 2-{(S)-1-[4-(4-Acryloyl-piperazin-1-ylmethyl)-phenyl]-ethylamino}-8-(2,2-dimethyl-propyl)-8H-pyrido[2,3-d]pyrimidin-7-one], the IC50 stood at 42 nM in assay [1]; 21 nM against IDH1^R132C; 264 nM at IDH2^R172K; 720 nM at IDH1WT enzyme; 8 nM in the assay with U87MG_IDH1R132H; 22 nM in the assay on HT-1080 (IDH1^R132C).

Regarding `C=CC(=O)N1CCN(C(CC2CC2)c2ccc([C@H](C)Nc3ncc4ccc(=O)n(C(C)C)c4n3)cc2)CC1` (stereo partly drawn) [cpd 220, 2-{[(1S)-1-{4-[1-(4-acryloylpiperazin-1-yl)-2-cyclopropylethyl]phenyl}ethyl]amino}-8-(propan-2-yl)pyrido[2,3-d]pyrimidin-7(8H)-one], the IC50 in assay [1] came out at 1 nM; on IDH1^R132C, 1 nM; against IDH2^R172K, 15 nM; against IDH1WT enzyme, 53 nM; with U87MG_IDH1R132H, 0.5 nM; in the assay on HT-1080 (IDH1^R132C), 0.3 nM.

Turning to `C=CC(=O)N1CCN(C(CC)c2ccc([C@@H](C)Nc3ncc4ccc(=O)n(C(C)C)c4n3)cc2)CC1` (stereo in doubt) [cpd 229, 2-{[(1R)-1-{4-[(1R)-1-(4-acryloylpiperazin-1-yl)propyl]phenyl}ethyl]amino}-8-(propan-2-yl)pyrido[2,3-d]pyrimidin-7(8H)-one], the IC50 came out at 83 nM in assay [1]; 44 nM at IDH1^R132C; 386 nM against IDH2^R172K; 839 nM at IDH1WT enzyme; 13 nM in the assay on U87MG_IDH1R132H; 20 nM in the assay with HT-1080 (IDH1^R132C).

On to `C[C@H](Nc1ncc2ccc(=O)n(CC(C)(C)C)c2n1)c1ccc(CN2CCC(F)(F)CC2)cc1` [cpd 105, 2-{[(1S)-1-{4-[(4,4-difluoropiperidin-1-yl)methyl]phenyl)ethyl]amino)-8-(2,2-dimethylpropyl)pyrido[2,3-d]pyrimidin-7(8H)-one], for which the 50% inhibitory concentration (IC50) is 105 nM in assay [1]; 55 nM at IDH1^R132C; 4730 nM against IDH2^R172K; 2040 nM against IDH1WT enzyme; 417 nM with U87MG_IDH1R132H; 116 nM in the assay on HT-1080 (IDH1^R132C).

On to `C=CC(=O)N1CCN([C@@H](CC)c2ccc([C@H](C)Nc3ncc4ccc(=O)n(C(C)C)c4n3)cc2)CC1` [cpd 227, 2-{[(1S)-1-{4-[(1S)-1-(4-acryloylpiperazin-1-yl)propyl]phenyl}ethyl]amino}-8-(propan-2-yl)pyrido[2,3-d]pyrimidin-7(8H)-one], for which the 50% inhibitory concentration (IC50) stood at 7 nM in assay [1]; 5 nM against IDH1^R132C; 49 nM on IDH2^R172K; 109 nM on IDH1WT enzyme; 0.4 nM in the assay with U87MG_IDH1R132H; 1.4 nM in the assay on HT-1080 (IDH1^R132C).

Consider `C[C@H](Nc1ncc2ccc(=O)n(CC(C)(C)C)c2n1)c1ccc(CN2CCC(F)(F)CC2)c(F)c1` [cpd 94, 2-{[(1S)-1-{4-[(4,4-difluoropiperidin-1-yl)methyl]-3-fluorophenyl}ethyl]amino}-8-(2,2-dimethylpropyl) pyrido[2,3-d]pyrimidin-7(8H)-one], for which the IC50 in assay [1] was 71 nM; against IDH1^R132C, 30 nM; on IDH2^R172K, 5570 nM; at IDH1WT enzyme, 1330 nM; with U87MG_IDH1R132H, 370 nM; in the assay on HT-1080 (IDH1^R132C), 203 nM.
